# Data taken from patent US20050256161A1, “Melanin concentrating hormone receptor antagonists” (priority 2003, published 2005).
# pIC50, pKi: −log10 of the molar value.
# Experiments:
# [1] = target: T1, rat MCH 1 receptor (rMCH1R) (Rattus norvegicus, UniProt P97639); experiment: Ligand binding assay (125I native-MCH), rMCH; conditions: rMCH1R expressed in HEK 293, membranes, 0.2 nM 125I native-MCH
# T1 construct: expressed in transfected cells; host or cells: HEK 293 (membrane preparation)
# Protocol: (§1) Human embryonic kidney cells (293 total) expressing either human, rat, or mouse MCH receptor were harvested from 150 mm culture dishes using PBS. Spinning at 1500 rpm for 2 minutes initially pelleted cells. The resulting pellet was then homogenized in 15 mL ice cold sucrose buffer (25 mM HEPES, 0.3 M sucrose, pH 7.4) with a motorized, glass fitted, Teflon® homogenizer. The homogenate was centrifuged at 48,000×g at 4° C. for 10 minutes, resuspended in 15 mL assay buffer (25 mM HEPES, 10 mM MgCl2, 0.2% BSA, 0.1 mg/mL STI, 0.1 mg/mL Pefabloc®, 1 μM Phosphoramidon, pH 7.4) with a Tissue-Tearor® (Biospec Products) and centrifuged again at 48,000×g for 10 minutes. The pellet was homogenized for a third time in 15 mL assay buffer using the Tissue-Tearor® and again centrifuged at 48,000×g for 10 minutes. The resulting pellet was resuspended in assay buffer at a wet weight concentration of 10-20 mg/mL.
# (§2) Binding assays were determined as described below using mouse, rat or human MCH 1 receptors (mMCH1R, rMCH1R, and hMCH1R, respectively) expressed in HEK 293; IC50 values were calculated.
# (§3) Binding assays were performed in 96-well U-bottom plates. Membranes (100 μg tissue) were incubated at 30° C. for 90 minutes in assay buffer with various peptides in the presence of 0.2 nM 125I native-MCH (Perkin-Elmer Life Sciences, Boston, Mass.) in 100 μL total volume. Non-specific binding was assessed in the presence of 1 μM cold native-MCH. The reaction was terminated by rapid filtration through Unfilter-96 GF/C glass fiber filter plates (FilterMate® 196 Harvester, Packard Instrument Co., Meriden, Conn.) pre-soaked in PBS/0.5% BSA, followed by three washes with 300 μL ice-cold water. Bound radioactivity was determined using a TopCount® microplate scintillation and luminescence counter (Packard Instrument Co., Meriden, Conn.). Nonlinear regression analyses of drug concentration curves were performed using GraphPad Prism® (GraphPad Software, Inc., San Diego, Calif.).
# [2] = target: T2, human MCH 1 receptor (hMCH1R) (Homo sapiens, UniProt Q99705); experiment: Ligand binding assay (125I native-MCH), hMCH; conditions: hMCH1R expressed in HEK 293, membranes, 0.2 nM 125I native-MCH
# T2 construct: expressed in transfected cells; host or cells: HEK 293 (membrane preparation)
# Protocol: as §1, §2, §3
# [3] = target: T3, rat MCH1 receptor (Rattus norvegicus, UniProt P97639); experiment: rMCH FLIPR calcium mobilization functional assay; assay type: cell-based; conditions: CHOK1-Gqi cells
# T3 construct: expressed in transfected cells
# Protocol: Pharmacological analyses were conducted using either a HT-PS100 device (Axiom Biotechnologies, San Diego, Calif.), which provides high-resolution dose-response fluorometric measurements of [Ca^++]i mobilization, or using a FLIPR® device (Molecular Devices, Sunnyvale, Calif.).
# Materials: Pharmacological analysis was conducted using a FLIPR® device (Molecular Devices, Sunnyvale, Calif.). CHOK1-Gqi cells were stably transfected with the rat MCH1 receptor and maintained under G418 antibiotic pressure. FLIPR® assay buffer consisted of phenol red-free DMEM+2.5 mM probenecid. MCH peptide (Amgen, Inc.) was reconstituted in assay buffer and served as the positive agonist control for all experiments. Test compounds were prepared as 10 mM stocks in 100% DMSO and diluted to a top end working concentration of 10 μM in 96 well black, flat bottom, collagen-I coated plates (Becton Dickinson, Bedford, Mass.).
# Methods: CHOK1-Gqi cells stably expressing MCH1R were maintained in Dulbeco's modified Eagle's medium (GIBCO/Life Technologies, Rockville, Md.) supplemented with 2 mM glutamine and 10% dialyzed fetal bovine serum (HyClone, Logan, Utah) at 37° C., 5% CO2. Cells were harvested by 10′ treatment with Versene (GIBCO/Life Technologies) followed by trituration, washing twice with cold (4° C.) hybridoma medium (Serum/Protein free, with L-glutamine, sodium bicarbonate, MOPS buffer) (Sigma-Aldrich Corp, St. Louis, Mo.) and replated onto 96 well black, flat bottom, collagen-I coated plates to a density of 10,000 cells/well. The cells were then loaded with the fluorescent calcium indicator Fura-2 (Molecular Probes, Eugene, Oreg.) at 1.6 μM for 60′ at room temperature. The loaded cells were then washed twice with 90 μl/well of wash buffer (1×HBSS, 20 mM HEPES, 2.5 mM probenecid).
# Receptor-stimulated intracellular calcium responses were detected using FLIPR® by monitoring increases in the Fura-2 fluorescence response.
# Test compounds were screened for MCH1R activity in the FLIPR® for both agonist and antagonist action. Agonist mode challenges were conducted at a maximum gradient concentration of 1 μM. Antagonist activity was tested by 10 min pre-incubation of cells at a compound concentration of defined to be 300× the EC50 of MCH (typically 1 μM), with subsequent introduction of MCH at a concentration 5-fold of EC50 as determined in preliminary experiments.
# Schild experiments were conducted on the FLIPR® for selected compounds by co-administering antagonist compounds together with MCH peptide. Several fixed concentrations of antagonist compounds were prepared in 10-fold increments, and presented to the cells in a gradient of increasing MCH concentration. Values for compound pA2 were calculated by linear regression of MCH EC50s as a function of antagonist concentration.
# [4] = target: T4, human MCH receptor (Homo sapiens, UniProt Q99705); experiment: hMCH FLIPR calcium mobilization functional assay; assay type: cell-based; conditions: threshold 100 μM or less
# T4 construct: expressed in transfected cells
# T4 sequence (Q99705 whole entry): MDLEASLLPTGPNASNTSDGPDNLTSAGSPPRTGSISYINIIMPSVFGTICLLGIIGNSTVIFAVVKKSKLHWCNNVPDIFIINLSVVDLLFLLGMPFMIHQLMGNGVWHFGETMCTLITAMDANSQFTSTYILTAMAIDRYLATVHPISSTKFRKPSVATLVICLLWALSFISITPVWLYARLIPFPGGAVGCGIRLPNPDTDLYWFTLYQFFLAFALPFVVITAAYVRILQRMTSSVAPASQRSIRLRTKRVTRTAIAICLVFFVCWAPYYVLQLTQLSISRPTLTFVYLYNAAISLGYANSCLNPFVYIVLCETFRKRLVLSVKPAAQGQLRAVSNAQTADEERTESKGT
# T2 sequence (Q99705 whole entry): as above
# T3 sequence (P97639 whole entry): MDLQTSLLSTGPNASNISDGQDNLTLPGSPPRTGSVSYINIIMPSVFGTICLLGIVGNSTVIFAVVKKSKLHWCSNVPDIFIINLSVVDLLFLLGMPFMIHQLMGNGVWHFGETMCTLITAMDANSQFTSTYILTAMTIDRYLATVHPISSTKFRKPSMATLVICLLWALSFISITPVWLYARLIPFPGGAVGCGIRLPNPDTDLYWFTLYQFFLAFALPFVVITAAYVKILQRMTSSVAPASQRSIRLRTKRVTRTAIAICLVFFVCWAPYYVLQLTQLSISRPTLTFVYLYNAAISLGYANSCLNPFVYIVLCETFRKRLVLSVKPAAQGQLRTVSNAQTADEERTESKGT
# T1 sequence (P97639 whole entry): as above
Compound,pIC50 ([1]; threshold 100 μM or less),pIC50 ([2]; threshold 100 μM or less),pKi ([3]; threshold 100 μM or less),pKi [4],pIC50 ([1]; threshold 100 nM or less),pKi ([3]; threshold 100 nM or less),pIC50 ([2]; threshold 100 nM or less)
"O=C(Nc1cccc(F)c1)Nc1cc(C(=O)NCCN2CCCC2)ccc1Oc1ccc(F)c(F)c1 [Compound 53, 4-(3,4-difluorophenoxy)-3-[3-(3-fluorophenyl)ureido]-N-(2-pyrrolidin-1-yl-ethyl)benzamide]",≥ 4.00,–,≥ 4.00,≥ 4.00,≥ 7.00,–,–
"Cc1ccc(Oc2ccc(C(=O)NCCN3CCCC3)cc2NC(=O)N(c2ccccc2)c2ccccc2)cc1C [Compound 42, 4-(3,4-dimethylphenoxy)-3-(3,3-diphenylureido)-N-(2-pyrrolidin-1-yl-ethyl)benzamide]",≥ 4.00,≥ 4.00,–,–,–,–,–
"COc1ccccc1NC(=O)Nc1cc(C(=O)NCCN2CCCC2)ccc1Oc1ccc(C)c(C)c1 [Compound 30, 4-(3,4-dimethylphenoxy)-3-[3-(2-methoxyphenyl)ureido]-N-(2-pyrroliidin-1-yl-ethyl)benzamide]",≥ 4.00,≥ 4.00,≥ 4.00,–,–,–,–
"O=C(Nc1cc(F)cc(F)c1)Nc1cc(C(=O)NCCN2CCCC2)ccc1Oc1ccc(Cl)c(Cl)c1 [Compound 66, 4-(3,4-dichlorophenoxy)-3-[3-(3,5-difluorophenyl)ureido]-N-(2-pyrrolidin-1-yl-ethyl)benzamide]",≥ 4.00,≥ 4.00,–,–,≥ 7.00,–,≥ 7.00
"Cc1ccc(Oc2ccc(C(=O)NCCN3CCCC3)cc2NC(=O)CCC2CCCC2)cc1C [Compound 12, 3-(3-cyclopentylpropionylamino)-4-(3,4-dimethylphenoxy)-N-(2-pyrrolidin-1-yl-ethyl)benzamide]",≥ 4.00,≥ 4.00,–,–,–,–,–
"O=C(NCCN1CCCC1)c1ccc(Oc2ccccc2)cc1 [Compound 8, 4-(phenyloxy)-N-(2-(1-pyrrolidinyl)ethyl)benzamide]",–,≥ 4.00,–,–,–,–,–
"Cc1ccc(Oc2ccc(C(=O)NCCN3CCCC3)cc2NC(=O)[C@@H]2C[C@H]2c2ccccc2)cc1C (stereo in doubt) [Compound 16, 4-(3,4-dimethylphenoxy)-3-[(2-phenyl-cyclopropanecarbonyl)amino]-N-(2-pyrrolidin-1-yl-ethyl)benzamide]",≥ 4.00,≥ 4.00,–,–,–,–,–
"Cc1ccc(Oc2ccc(C(=O)NCCN3CCCC3)cc2NC(=O)Nc2ccc(Oc3ccccc3)cc2)cc1C [Compound 32, 4-(3,4-dimethylphenoxy)-3-[3-(4-phenoxyphenyl)ureido]-N-(2-pyrrolidin-1-yl-ethyl)benzamide]",≥ 4.00,≥ 4.00,≥ 4.00,–,–,≥ 7.00,≥ 7.00
"CCNC(=O)Nc1cc(C(=O)NCCN2CCCC2)ccc1Oc1ccc(C)c(C)c1 [Compound 18, 4-(3,4-dimethylphenoxy)-3-(3-ethylureido)-N-(2-pyrrolidin-1-yl-ethyl)benzamide]",≥ 4.00,≥ 4.00,–,–,–,–,–
"Cc1ccc(Oc2ccc(C(=O)NCCN)cc2NC(=O)CCc2ccccc2)cc1C [Compound 20, N-(2-aminoethyl)-4-(3,4-dimethylphenoxy)-3-(3-phenylpropionylamino)benzamide]",–,≥ 4.00,–,–,–,–,–
O=C(CCc1ccccc1)Nc1cc(C(=O)NCCN2CCCC2)ccc1Oc1ccc2ccccc2c1 [Compound 22],–,–,≥ 4.00,–,–,–,–

# Next, values leading:
pIC50 ([1]; threshold 100 μM or less),pIC50 ([2]; threshold 100 μM or less),pKi ([3]; threshold 100 μM or less),pKi [4],pIC50 ([1]; threshold 100 nM or less),pKi ([3]; threshold 100 nM or less),pIC50 ([2]; threshold 100 nM or less),Compound
≥ 4.00,≥ 4.00,–,–,–,–,–,"Cc1ccc(Oc2ccc(C(=O)NCCN3CCCC3)cc2NC(=O)Cc2ccccc2)cc1C [Compound 13, 4-(3,4-dimethylphenoxy)-3-phenylacetylarnino-N-(2-pyrrolidin-1-yl-ethyl)benzamide]"
≥ 4.00,≥ 4.00,≥ 4.00,–,≥ 7.00,≥ 7.00,≥ 7.00,"Cc1ccc(Oc2ccc(C(=O)NCCN3CCCC3)cc2NC(=O)Nc2ccc(Cl)cc2Cl)cc1C [Compound 31, 3-[3-(2,4-dichlorophenyl)ureido]-4-(3,4-dimethylphenoxy)-N-(2-pyrrolidin-1-yl-ethyl)benzamide]"
≥ 4.00,≥ 4.00,–,–,–,–,–,"CC(=O)Nc1cc(C(=O)NCCN2CCCC2)ccc1Oc1ccc(C)c(C)c1 [Compound 10, 3-acetylamino-4-(3,4-dimethylphenoxy)-N-(2-pyrrolidin-1-yl-ethyl)benzamide]"
≥ 4.00,≥ 4.00,–,–,–,–,–,"Cc1ccc(Oc2ccc(C(=O)NCCN3CCCC3)cc2NC(=O)N(C)c2ccccc2)cc1C [Compound 43, 4-(3,4-dimethylphenoxy)-3-(3-methyl-3-phenylureido)-N-(2-pyrrolidin-1-yl-ethyl)benzamide]"
≥ 4.00,≥ 4.00,–,–,–,–,–,"Cc1ccc(Oc2ccc(C(=O)NCCN3CCCC3)cc2NC(=O)c2ccc3ccccc3c2)cc1C [Compound 17, naphthalene-2-carboxylic acid [2-(3,4-dimethylphenoxy)-5-(2-pyrrolidin-1-yl-ethylcarbamoyl)phenyl]amide]"
≥ 4.00,≥ 4.00,≥ 4.00,–,≥ 7.00,≥ 7.00,≥ 7.00,"Cc1ccc(Oc2ccc(C(=O)NCCN3CCCC3)cc2NC(=O)Nc2cccc(F)c2)cc1C [Compound 39, 4-(3,4-dimethylphenoxy)-3-[3-(3-fluorophenyl)ureido]-N-(2-pyrrolidin-1-yl-ethyl)benzamide]"
≥ 4.00,≥ 4.00,≥ 4.00,–,–,–,≥ 7.00,Cc1ccc(Oc2ccc(C(=O)NCCN3CCCC3)cc2NC(=O)Nc2ccc(-c3ccccc3)cc2)cc1C [Compound 33]
≥ 4.00,–,–,≥ 4.00,≥ 7.00,–,–,"O=C(Nc1cccc(F)c1)Nc1cc(C(=O)NCCN2CCCC2)ccc1Oc1ccc(Cl)c(Cl)c1 [Compound 52, 4-(3,4-dichlorophenoxy)-3-[3-(3-fluorophenyl)ureido]-N-(2-pyrrolidin-1-yl-ethyl)benzamide]"
≥ 4.00,–,–,–,≥ 7.00,–,–,"O=C(Nc1cccc(F)c1)Nc1cc(C(=O)NCCN2CCCC2)ccc1Oc1ccccc1 [Compound 61, 3-[3-(3-fluorophenyl)ureido]-4-phenoxy-N-(2-pyrrolidin-1-yl-ethyl)benzamide]"
≥ 4.00,≥ 4.00,≥ 4.00,–,–,≥ 7.00,–,"Cc1ccc(Oc2ccc(C(=O)NCCN3CCCC3)cc2NC(=O)/C=C/c2ccccc2)cc1C [Compound 15, 4-(3,4-dimethylphenoxy)-3-(3-phenyl-acryloylamino)-N-(2-pyrrolidin-1-yl-ethyl)benzamide]"
